Experimental data as given in patent US8119640B2, “Hedgehog pathway antagonists methods of use” (The Board of Trustees of the Leland Stanford Junior …, priority 2008, dated 2012).
“Also recorded” adds a separate entry of the source.

Tests used:
FLAG-Gli2 [1] = experiment: Analysis of Gli2 processing and Shh-dependent Gli2 stabilization; assay type: cell-based, mouse; conditions: Shh-EGFP FLAG-Gli2 cells, absence and presence of Shh, 24 h
Procedure: Analysis of Gli2 processing and Shh-dependent Gli2 stabilization. […] Each compound incubation was also done in the absence and presence of 5% Shh-N-conditioned medium, and the cells were maintained under these conditions for 24 h. The cells were subsequently solubilized in lysis buffer (100 μL/well; 50 mM Tris-HCl, pH 7.4, 1% Triton X-100, 250 mM NaCl, 2 mM EDTA, 20 mM NaF, 2 mM Na3VO4, 2 mM 2-mercaptoethanol, EDTA-free protease inhibitor cocktail (Roche)). This suspension was transferred to a 1.5-mL centrifuge tube and incubated on ice for 30 min, with vortexing every 5 min. The cell lysates were then centrifuged at 20,000×g at 4° C. for 20 min. Supernatants were removed, and a BCA protein assay was performed to quantify protein levels. Mouse anti-FLAG M2 agarose slurry (20 μL, Sigma) was pelleted by centrifugation and incubated with 800 ng of protein from each condition for 90 min at 4° C. and then washed three times with 1 mL of wash buffer (75 mM Tris-HCl buffer, pH 8.0 containing 225 mM NaCl, 0.5% Triton X-100) and centrifuged at 2,300×g at 4° C. The agarose beads were suspended in 30 μL of 1×SDS-PAGE sample buffer (50 mM Tris-HCl, pH 6.8 containing 10% glycerol, 2% SDS, 50 mM DTT, 200 mM 2-mercaptoethanol, and 0.001% bromophenol blue), and the mixture was boiled for 5 min. The samples were then resolved on a 4-12% Bis-Tris Criterion XT gel and transferred to a PVDF membrane. The membrane was dehydrated with methanol, and then probed with rabbit anti-FLAG antibody (Sigma; 1:1,000 dilution in blocking buffer (PBS 21 containing 3% non-fat dried milk and 0.01% Tween 20)) for 90 min. […] Blots were washed 4×3 min in PBS, and the immunoreactive bands were detected with a SuperSignal West Dura kit and a ChemiDoc XRS system. Protein bands were quantified using Quantity One software (Bio-Rad). For each experiment, boxes of equal size were drawn around the FLAG-Gli2 and FLAG-Gli2R bands. Band intensities were then normalized to the average intensity for all bands in a given experiment. The results from all experiments were averaged and normalized relative to the basal level of FLAG-Gli2 (DMSO treatment without Shh-N-conditioned medium).

FLAG-Gli2 [2] = experiment: Immunostaining of FLAG-Gli2 line: ciliary FLAG-Gli2 and primary cilia; assay type: cell-based, mouse; conditions: for Ciliary levels of FLAG-Gli2: Shh-EGFP FLAG-Gli2 cells, immunofluorescence
Procedure: Immunostaining of FLAG-Gli lines and NIH-3T3 cells. The FLAG-Gli1-expressing or FLAG-Gli2-expressing clonal cell lines were seeded into 24-well plates (80,000 cells/well) containing poly-D-lysine-coated 12-mm glass coverslips. […] The cells were subsequently fixed in 4% paraformaldehyde for 10 min at room temperature followed by treatment with methanol at −20° C. for 2 to 5 min. The cells were washed with PBS, permeabilized with 0.2% Triton X-100 for 2 to 5 min, and then blocked with PBS containing 2% BSA for 3 h at room temperature. The coverslips were then treated with mouse anti-FLAG M2 antibody (Sigma; 1:1,000 dilution in blocking buffer) and rabbit anti-Arl13b (10) (1:1,000 dilution in blocking buffer) for 3 h at room temperature and washed 3×5 min with PBS. The coverslips were incubated next with Alexa Fluor 594-conjugated goat anti-mouse IgG and Alexa Fluor 488-conjugated donkey anti-rabbit IgG antibodies (Invitrogen; 1:1,000 dilutions in blocking buffer) for 2 h at room temperature. After washes with PBS and a 5-min incubation with 4,6-diamidino-2-phenylindole (DAPI), the samples were mounted using Prolong Gold (Invitrogen) and imaged with an upright Leica DM4500B compound microscope. In order to quantify ciliary Gli2 localization, a circular region with diameter equal to the average width of cilia as determined by the anti-Arl13b antibody staining was manually placed at the distal end of each cilium. Regions were transferred from the anti-Arl13b antibody image to the anti-FLAG antibody image, and FLAG staining intensities within those areas were assessed. Between 40 and 80 cilia were analyzed for each condition. To normalize ciliary FLAG-Gli2 levels with respect to compound-dependent changes in total FLAG-Gli2 levels, the absolute average intensities for each condition were divided by the fold change in FLAG-Gli2 levels, as determined by the quantitative immunoblotting described above. Quantification of ciliary FLAG-Gli1 levels was performed in an analogous manner. Since HPI-4 perturbs primary cilia formation, only Arl13b-positive structures that could be clearly identified as cilia were used for Gli protein quanitification in HPI-4-treated cells. To assess cytoplasmic microtubule structures in cells treated with the HPIs, NIH-3T3 cells were cultured on poly-D-lysine-coated 12-mm glass coverslip, treated with the HPIs, and fixed with 4% paraformalehyde as described above. In place of the methanol treatment, the cells were permeabilitized with PBS containing 0.1% Triton X-100 for 1 min. Washing, blocking, and antibody incubation steps were then conducted as before, using mouse anti-<-tubulin (DM1-A, Sigma, 1:2,000 in blocking buffer). Secondary antibody treatments, DAPI staining, mounting, and imaging were then conducted as described above.

| Compound | FLAG-Gli2 levels and processing (immunoblotting) (FLAG-Gli2 [1]) | Ciliary levels of FLAG-Gli2 (FLAG-Gli2 [2]) | Primary cilia formation (FLAG-Gli2 [2]; 30 μM HPI-4) |
| --- | --- | --- | --- |
| COCCOC(=O)C1=C(C)NC2=C(C(=O)CC(c3ccccc3OC)C2)C1c1cccc(O)c1 (mixture of isomers) [Compound 8, 4-(3-Hydroxy-phenyl)-7-(2-methoxy-phenyl)-2-methyl-5-oxo-1,4,5,6,7,8-hexahydro-quinoline-3-carboxylic acid 2-methoxy-ethyl ester] | slightly elevated levels of full-length and repressor forms of FLAG-Gli2 under basal conditions and greater FLAG-Gli2 processing upon Shh stimulation | – | – |
| OCCNc1nc(N2CCN(c3ccccc3)CC2)nc2ccccc12 [Compound 11] | moderately increased total FLAG-Gli2 levels as well but did not alter proteolytic processing of the transcription factor | increased ciliary levels of FLAG-Gli2 | – |
| COc1ccc(OC)c2c1cc1n2CC(C)(C(=O)NC2CCCCCCC2)N(CCN(C)C)C1=O (centres unmarked) [Compound 17] | moderately increased total FLAG-Gli2 levels as well but did not alter proteolytic processing of the transcription factor | increased ciliary levels of FLAG-Gli2 | – |
| N#CC(C(=O)c1ccc(Cl)cc1Cl)=C1NC(=O)c2ccccc2N1 [Compound 18] | both decreased total FLAG-Gli2 levels and prevented Shh dependent stabilization of full-length FLAG-Gli2 | increased ciliary levels of FLAG-Gli2 | truncated primary cilia; also recorded: inhibits primary cilia formation |
